Measurements published in US12077503B2, “Substituted cyclic amides and their use as herbicides” (FMC CORPORATION, priority 2015, dated 2024).

Legend:
Format in all cases: in vivo
[1] = test system: sedge, umbrella (small-flower umbrella sedge, Cyperus difformis); assay: Test B flooded paddy test; conditions: Flood, 250 g ai/ha; 0 to 100 scale where 0 is no effect and 100 is complete control; 13 to 15 d
Method in brief: (§1)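 Greenhouse paddy pots with 2-leaf stage plants received compound by direct addition to floodwater 3 cm deep, kept at that level. Scored visually at 13–15 d versus controls (0 no effect; 100 complete control).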

[2] = test system: rice (Oryra sativa); assay: Test B flooded paddy test; conditions: Flood, 250 g ai/ha; 0 to 100 scale where 0 is no effect and 100 is complete control; 13 to 15 d
Method in brief: as §1

[3] = test system: ducksalad (Heteranthera limosa); assay: Test B flooded paddy test; conditions: Flood, 250 g ai/ha; 0 to 100 scale where 0 is no effect and 100 is complete control; 13 to 15 d
Method in brief: as §1

[4] = test system: barnyardgrass (Echinochloa crus-galli); assay: Test B flooded paddy test; conditions: Flood, 250 g ai/ha; 0 to 100 scale where 0 is no effect and 100 is complete control; 13 to 15 d
Method in brief: as §1

[5] = test system: johnsongrass (Sorghum halepense); assay: Test C preemergence; conditions: for Plant response rating, Johnsongrass: scale 0 to 100, 0 no effect, 100 complete control
Method in brief: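 Preemergence: sow in loam-sand soil and treat. Postemergence: grow in peat-moss/vermiculite medium to 2–18 cm (1–4 leaves) and spray. Compound in non-phytotoxic solvent with surfactant; keep in greenhouse 13–15 d; score visually against controls, 0 (none) to 100 (full control).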

[6] = test system: ryegrass, Italian (Italian ryegrass, Lolium multiflorum); assay: Test A preemergence
Method in brief: (§2)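 Seeds sprayed preemergence with a directed soil spray, or plants at 2 to 10 cm height and one- to two-leaf stage sprayed postemergence, with test chemicals in a non-phytotoxic solvent mixture containing surfactant, in loam soil–sand blend. Injury rated visually against untreated controls after about 10 d in greenhouse, 0 (no effect) to 100 (complete control).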

[7] = test system: ragweed (common ragweed, Ambrosia elatior); assay: Test A preemergence; conditions: for Plant response rating, Ragweed: preemergence
Method in brief: as §2

[8] = test system: Kochia (Kochia scoparia); assay: Test A preemergence
Method in brief: as §2

[9] = test system: giant foxtail (Setaria faberii); assay: Test A preemergence
Method in brief: as §2

[10] = test system: pigweed (Amaranthus retroflexus); assay: Test A preemergence
[11] = test system: barnyardgrass (Echinochloa crus-galli); assay: Test A preemergence
Method in brief: as §2

[12] = test system: corn (Zea mays); assay: Test A postemergence; conditions: for Corn plant response rating: visual injury rating on 0 to 100 scale (0 no effect, 100 complete control), approx. 10 d
Method in brief: as §2

[13] = test system: Galium (catchweed bedstraw, Galium aparine); assay: Test A postemergence; conditions: for Galium plant response rating: visual injury rating on 0 to 100 scale (0 no effect, 100 complete control), approx. 10 d
Method in brief: as §2

[14] = test system: blackgrass (Alopecurus myosuroides); assay: Test A postemergence
Method in brief: as §2

[15] = test system: wheat (Triticum aestivum); assay: Test A postemergence; conditions: for Wheat plant response rating: visual injury rating on 0 to 100 scale (0 no effect, 100 complete control), approx. 10 d
Method in brief: as §2

[16] = test system: ryegrass, Italian (Italian ryegrass, Lolium multiflorum); assay: Test A postemergence; conditions: for Ryegrass, Italian plant response rating: visual injury rating on 0 to 100 scale (0 no effect, 100 complete control), approx. 10 d
Method in brief: as §2

[17] = test system: ragweed (common ragweed, Ambrosia elatior); assay: Test A postemergence; conditions: for Ragweed plant response rating: visual injury rating on 0 to 100 scale (0 no effect, 100 complete control), approx. 10 d
Method in brief: as §2

[18] = test system: Kochia (Kochia scoparia); assay: Test A postemergence; conditions: for Kochia plant response rating: visual injury rating on 0 to 100 scale (0 no effect, 100 complete control), approx. 10 d
Method in brief: as §2

[19] = test system: giant foxtail (Setaria faberii); assay: Test A postemergence; conditions: for Foxtail, Giant plant response rating: visual injury rating on 0 to 100 scale (0 no effect, 100 complete control), approx. 10 d
Method in brief: as §2

[20] = test system: pigweed (Amaranthus retroflexus); assay: Test A postemergence; conditions: for Pigweed plant response rating: visual injury rating on 0 to 100 scale (0 no effect, 100 complete control), approx. 10 d
Method in brief: as §2

[21] = test system: barnyardgrass (Echinochloa crus-galli); assay: Test A postemergence
Method in brief: as §2

[22] = 125 g ai/ha, preemergence, 0 to 100 scale (0 no effect, 100 complete control)
[23] = Preemergence, 500 g ai/ha, visual injury approx. 10 d
[24] = 125 g ai/ha, 0 to 100 scale (0 no effect, 100 complete control)
[25] = 500 g ai/ha, postemergence, 0 to 100 scale, 0 no effect, 100 complete control
[26] = 125 g ai/ha, postemergence, visual injury rating on 0 to 100 scale (0 no effect, 100 complete control), approx. 10 d
[27] = Preemergence, 500 g ai/ha, 0 is no effect, 100 is complete control
[28] = Postemergence, 125 g ai/ha, visual injury, 0 to 100 scale (0 no effect, 100 complete control), approx. 10 d
[29] = 125 g ai/ha, Preemergence, visual injury after approximately 10 d, 0 to 100 scale where 0 is no effect and 100 is complete control
[30] = 500 g ai/ha, preemergence, 0 to 100 scale, 0 = no effect, 100 = complete control
[31] = 125 g ai/ha, postemergence, visual rating after approx. 10 d, 0 to 100 scale (0 no effect, 100 complete control)
[32] = Postemergence, 500 g ai/ha, 0 to 100 scale where 0 is no effect and 100 is complete control

CN1CC(c2ccc(C(F)(F)F)cc2)C(C(=S)Nc2ccccc2F)C1=O (centres unmarked) [Compound 450]
20: Plant response rating, Johnsongrass ([5]; 125 g ai/ha) | Plant response rating, Ragweed [7, 24] | Corn plant response rating ([12]; 125 g ai/ha, postemergence) | Blackgrass plant response rating [14, 26] | Ragweed plant response rating ([17]; 125 g ai/ha, postemergence) | Kochia plant response rating ([18]; 125 g ai/ha, postemergence)
90: Plant response rating, Foxtail, Giant [9, 22] | Foxtail, Giant plant response rating (0 to 100 scale, 0 is no effect, 100 is complete control) [9, 23] | Plant response rating, Barnyardgrass [11, 22] | Barnyardgrass plant response rating (0 to 100 scale, 0 is no effect, 100 is complete control) [11, 23] | Plant response rating, Barnyardgrass [21, 25]
40: Ryegrass, Italian plant response rating (0 to 100 scale, 0 is no effect, 100 is complete control) [6, 23] | Plant response rating, Blackgrass [14, 25]
60: Plant response rating, Corn [12, 25] | Plant response rating, Galium [13, 25] | Plant response rating, Pigweed [20, 25]
75: Plant response rating, Ducksalad [3]
80: Kochia plant response rating (0 to 100 scale, 0 is no effect, 100 is complete control) [8, 23] | Pigweed plant response rating (0 to 100 scale, 0 is no effect, 100 is complete control) [10, 23] | Foxtail, Giant plant response rating ([19]; 125 g ai/ha, postemergence) | Plant response rating, Foxtail, Giant [19, 25] | Barnyardgrass plant response rating [21, 26]
45: Plant response rating, Barnyardgrass [4]
0: Plant response rating, Sedge, Umbrella [1] | Plant response rating, Rice [2] | Plant response rating, Johnsongrass ([5]; 31 g ai/ha) | Plant response rating, Johnsongrass ([5]; 62 g ai/ha) | Plant response rating, Ryegrass, Italian [6, 22] | Wheat plant response rating ([15]; 125 g ai/ha, postemergence) | Ryegrass, Italian plant response rating ([16]; 125 g ai/ha, postemergence)
30: Plant response rating, Wheat [15, 25] | Plant response rating, Ragweed [17, 25]
50: Plant response rating, Johnsongrass ([5]; 250 g ai/ha) | Plant response rating, Kochia [8, 22] | Galium plant response rating ([13]; 125 g ai/ha, postemergence) | Plant response rating, Ryegrass, Italian [16, 25] | Plant response rating, Kochia [18, 25] | Pigweed plant response rating ([20]; 125 g ai/ha, postemergence)
70: Ragweed plant response rating (0 to 100 scale, 0 is no effect, 100 is complete control) [7, 23] | Plant response rating, Pigweed [10, 22]

CN1CC(c2cccc(OC(F)(F)C(F)F)c2)C(C(=O)Nc2ccc(F)cc2F)C1=O (centres unmarked) [Compound 393]
65: Plant response rating, Barnyardgrass [4]
20: Plant response rating, Ryegrass, Italian [6, 22] | Wheat plant response rating ([15]; 125 g ai/ha, postemergence)
85: Plant response rating, Johnsongrass ([5]; 125 g ai/ha) | Plant response rating, Johnsongrass ([5]; 250 g ai/ha)
60: Plant response rating, Kochia [8, 22] | Plant response rating, Blackgrass [14, 28] | Kochia plant response rating ([18]; 125 g ai/ha, postemergence) | Plant response rating, Kochia [18, 25]
40: Ryegrass, Italian plant response rating ([16]; 125 g ai/ha, postemergence)
80: Plant response rating, Johnsongrass ([5]; 62 g ai/ha) | Corn plant response rating ([12]; 125 g ai/ha, postemergence) | Plant response rating, Corn [12, 25] | Plant response rating, Barnyardgrass [21, 28]
50: Ryegrass, Italian plant response rating (0 to 100 scale) [6, 27] | Kochia plant response rating (0 to 100 scale) [8, 27] | Plant response rating, Pigweed [10, 22] | Pigweed plant response rating ([20]; 125 g ai/ha, postemergence)
0: Plant response rating, Sedge, Umbrella [1] | Plant response rating, Rice [2] | Plant response rating, Ragweed [7, 24] | Ragweed plant response rating ([17]; 125 g ai/ha, postemergence) | Plant response rating, Ragweed [17, 25]
70: Plant response rating, Johnsongrass ([5]; 31 g ai/ha) | Ragweed plant response rating (0 to 100 scale) [7, 27] | Pigweed plant response rating (0 to 100 scale) [10, 27] | Galium plant response rating ([13]; 125 g ai/ha, postemergence) | Plant response rating, Galium [13, 25] | Plant response rating, Blackgrass [14, 25] | Plant response rating, Wheat [15, 25] | Plant response rating, Ryegrass, Italian [16, 25] | Plant response rating, Pigweed [20, 25]
90: Plant response rating, Ducksalad [3] | Plant response rating, Foxtail, Giant [9, 22] | Foxtail, Giant plant response rating (0 to 100 scale) [9, 27] | Plant response rating, Barnyardgrass [11, 22] | Barnyardgrass plant response rating (0 to 100 scale) [11, 27] | Foxtail, Giant plant response rating ([19]; 125 g ai/ha, postemergence) | Plant response rating, Foxtail, Giant [19, 25] | Plant response rating, Barnyardgrass [21, 25]

CN1CC(c2cccc(OC(F)F)c2)C(C(=O)Nc2ccccc2F)C1=O (centres unmarked) [Compound 618]
80: Plant response rating, Corn [12, 31] | Plant response rating, Corn [12, 32]
30: Plant response rating, Pigweed [20, 32]
0: Plant response rating, Sedge, Umbrella [1] | Plant response rating, Ragweed [17, 31] | Plant response rating, Pigweed [20, 31]
90: Plant response rating, Ryegrass, Italian [6, 30] | Plant response rating, Kochia [8, 29] | Plant response rating, Kochia [8, 30] | Plant response rating, Foxtail, Giant [9, 29] | Plant response rating, Pigweed [10, 30] | Plant response rating, Barnyardgrass [11, 29] | Plant response rating, Barnyardgrass [11, 30] | Plant response rating, Foxtail, Giant [19, 31] | Plant response rating, Foxtail, Giant [19, 32] | Plant response rating, Barnyardgrass [21, 31] | Plant response rating, Barnyardgrass [21, 32]
20: Plant response rating (scale of 0 to 100), Johnsongrass ([5]; 31 g ai/ha, 0 is no effect, 100 is complete control) | Plant response rating, Ragweed [17, 32]
50: Plant response rating, Ryegrass, Italian [6, 29] | Plant response rating, Pigweed [10, 29] | Plant response rating, Galium [13, 31] | Plant response rating, Blackgrass [14, 31] | Plant response rating, Wheat [15, 31] | Plant response rating, Ryegrass, Italian [16, 32]
40: Plant response rating, Ryegrass, Italian [16, 31] | Plant response rating, Kochia [18, 31]
85: Plant response rating, Barnyardgrass [4] | Plant response rating, Johnsongrass ([5]; 125 g ai/ha) | Plant response rating, Johnsongrass ([5]; 250 g ai/ha)
100: Plant response rating, Ducksalad [3] | Plant response rating, Foxtail, Giant [9, 30]
60: Plant response rating, Johnsongrass ([5]; 62 g ai/ha) | Plant response rating, Galium [13, 32] | Plant response rating, Blackgrass [14, 32] | Plant response rating, Kochia [18, 32]
70: Plant response rating, Ragweed ([7]; 500 g ai/ha, 0 to 100 scale, 0 = no effect, 100 = complete control) | Plant response rating, Wheat [15, 32]
10: Plant response rating, Rice [2]
